The values that follow come from article PMC11413778, “Honokiol enhances the sensitivity of cetuximab in KRAS^G13D mutant colorectal cancer through destroying SNX3-retromer complex” (Theranostics, 2024).

The target of the assay is T1, SNX3 (Homo sapiens, UniProt O60493).
T1 construct: Recombinant Human SNX3 protein (ab109970)
In words: biolayer interferometry (biotinylated SNX3 on SA biosensor), supported by CETSA in HCT116 and LoVo lysates. It is filed as binding. For orientation: Biolayer interferometry detects binding as a change in optical thickness at a sensor tip.

T1 sequence (O60493 2-162): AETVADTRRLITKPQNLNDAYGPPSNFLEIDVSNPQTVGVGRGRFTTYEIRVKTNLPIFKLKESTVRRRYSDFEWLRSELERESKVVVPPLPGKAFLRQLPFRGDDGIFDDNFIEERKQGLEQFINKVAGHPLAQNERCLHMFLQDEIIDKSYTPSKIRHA

As usually defined, the Kd is the equilibrium constant for the complex coming apart. The low end stands for tighter binding, the high end for weaker binding. `C=CCc1ccc(O)c(-c2ccc(O)c(CC=C)c2)c1` [HNK, honokiol] displayed a Kd of 29 µM.
